According to ChEMBL document CHEMBL3886836, “Amides as pim inhibitors” (2016):

How the values were obtained:
[1] = target: T1, Serine/threonine-protein kinase pim-1 (Homo sapiens, UniProt P11309); experiment: The phosphorylation of biotinylated-BAD (S112) peptide by full length recombinant Pim-1, Pim-2, or Pim-3 protein was detected with streptavidin:Allophycocyanin (APC) conjugate and a europium (Eu) labeled antibody directed against phosphorylated-BAD (S112). […] The fluorescence is directly proportional to the amount of phosphorylated BAD peptide present in the reaction. […] The Reaction Buffer consisted of 45 mM Hepes, pH 7.0, 15 mM NaCl, and 1 mM MgCl. The quench/detection buffer consisted of 50 mM Tris, 100 mM NaCl, 0.05% BSA, 0.1% Tween and 3 mM EDTA. Biotinylated BAD peptide (Biopeptide), 10 mM ATP (Sigma), Labeled p-BAD (S112) mAb (Cell Signalling and Perkin Elmer) [with 0.05% BSA and 2 mM DTT added] streptavidin:Allophycocyanin [Perkin Elmer]. […] Initial incubations were carried out at RT (22° C.) for 30 min for both Pim-1 and for Pim-2. Pim enzyme is added to compound in buffer, and plates are incubated of 30 min. Biotinylated BAD and ATP are added and plates are incubated for 1 h. A mixture of labeled p-BAD (S112) mAb and quench/detection buffer are added and incubated for 2 h. Fluorescence was measured by an HTRF® Envision microplate reader.
[2] = target: T2, Serine/threonine-protein kinase pim-2 (Homo sapiens, UniProt Q9P1W9); experiment: Homogeneous Time Resolved Fluorescence Assay (HTRF): The assay for the determination of Pim activity is based on the formation of phosphorylated biotinylated-BAD peptide at the Serine 112 residue (S112) and employs HTRF® (homogeneous time resolved fluorescence) technology to detect the product in a 384-well plate format. The phosphorylation of biotinylated-BAD (S112) peptide by full length recombinant Pim-1, Pim-2, or Pim-3 protein was detected with streptavidin:Allophycocyanin (APC) conjugate and a europium (Eu) labeled antibody directed against phosphorylated-BAD (S112). Excitation of Eu by a high energy laser light (337 nm) leads to a transfer of energy to the APC molecule, and results in an emission at 665 nm. The fluorescence is directly proportional to the amount of phosphorylated BAD peptide present in the reaction. […] A reference compound was included on each assay plate [Costar 3658] in order to validate that plate; on one plate of every assay run, two additional reference compounds were included. The Reaction Buffer consisted of 45 mM Hepes, pH 7.0, 15 mM NaCl, and 1 mM MgCl. The quench/detection buffer consisted of 50 mM Tris, 100 mM NaCl, 0.05% BSA, 0.1% Tween and 3 mM EDTA. Biotinylated BAD peptide (Biopeptide), 10 mM ATP (Sigma), Labeled p-BAD (S112) mAb (Cell Signalling and Perkin Elmer) [with 0.05% BSA and 2 mM DTT added] streptavidin:Allophycocyanin [Perkin Elmer]. Final concentrations either Pim-1 enzyme [5 pM], or Pim-2 enzyme [0.5 pM], DMSO [1%], BLC BAD (S112) [0.5 μM], ATP [1.5 μM], streptavidin:Allophycocyanin [0.002 mg/mL] and biotinylated-BAD (S112) mAb [100 pM]. Initial incubations were carried out at RT (22° C.) for 30 min for both Pim-1 and for Pim-2. Pim enzyme is added to compound in buffer, and plates are incubated of 30 min. Biotinylated BAD and ATP are added and plates are incubated for 1 h. A mixture of labeled p-BAD (S112) mAb and quench/detection buffer are added and incubated for 2 h. Fluorescence was measured by an HTRF® Envision microplate reader.
[3] = target: T1, Serine/threonine-protein kinase pim-1; experiment: (§1) Homogeneous Time Resolved Fluorescence Assay (HTRF): The assay for the determination of Pim activity is based on the formation of phosphorylated biotinylated-BAD peptide at the Serine 112 residue (S112) and employs HTRF® (homogeneous time resolved fluorescence) technology to detect the product in a 96-well plate format. The phosphorylation of biotinylated-BAD (S112) peptide by full length recombinant Pim-1, Pim-2, or Pim-3 protein was detected with streptavidin:Allophycocyanin (APC) conjugate and a europium (Eu) labeled antibody directed against phosphorylated-BAD (S112). Excitation of Eu by a high energy laser light (337 nm) leads to a transfer of energy to the APC molecule, and results in an emission at 665 nm. The fluorescence is directly proportional to the amount of phosphorylated BAD peptide present in the reaction. […] A reference compound was included on each assay plate in order to validate that plate; on one plate of every assay run, two additional reference compounds were included. The final buffer conditions were as follows: 60 mM Hepes, pH 7.0, 0.05% BSA, 2 mM DTT. Incubations were carried out at RT (22° C.) for 2 h for Pim-1, 1 hour and 30 min for Pim-3, and 45 min for Pim-2. The reaction was stopped by the addition of 3 mM EDTA, and fluorescence was measured by an HTRF® Rubystar microplate reader.
[4] = target: T2, Serine/threonine-protein kinase pim-2; experiment: as §1

SMILES | IC50 [1] [nM] | IC50 [2] [nM] | IC50 [3] [nM] | IC50 [4] [nM]
CC1(C)CCCN1c1cnc2cccc(-c3cc4c([nH]3)CCNC4=O)c2n1 | 0.3 | 0.8 | – | –
Cc1nc2cccc(-c3cc4c([nH]3)CCN/C4=N/O)c2nc1NC(C)(C)C | 9 | 12 | – | –
Cc1nc2cccc(-c3cc4c([nH]3)CCNC4=O)c2nc1N[C@H]1C[C@@H](N2CCOCC2)C1 | 6 | – | – | –
Cc1nc2cccc(-c3cc4c([nH]3)CCNC4=O)c2nc1-c1cnccc1Cl | 50.7 | – | – | –
Cc1nc2cccc(-c3cc4c(n3C)C(CO)NC4=O)c2nc1NC(C)(C)C (racemic) | 10.3 | 7.8 | – | –
Cc1nc2cccc(-c3cc4c([nH]3)CCNC4=O)c2nc1NC(C)C(C)C (racemic) | 1.2 | 1.8 | – | –
O=C1NCCc2[nH]c(-c3cccc4ccc(N[C@H]5CC[C@H](O)CC5)nc34)cc21 | – | – | 7 | 57.2
CC1(C)CCN1c1cnc2cccc(-c3cc4c([nH]3)CCNC4=O)c2n1 | 0.4 | 0.8 | – | –
Cc1nc2cccc(-c3cc4c([nH]3)CCNC4=O)c2nc1-c1ccc(N)cc1Cl | 10.3 | 33.4 | – | –
Cc1nc2cccc(-c3cc4c([nH]3)CCNC4=O)c2nc1N[C@H]1C[C@@H](N(C)C)C1 | 2 | 4 | – | –
Cc1nc2cccc(-c3cc4c([nH]3)CCNC4=O)c2nc1NC(C)(C)C(N)=O | 6.2 | 22.7 | – | –
Cc1nc2cccc(-c3cc4c([nH]3)C(CO)NC4=O)c2nc1NC(C)(C)C (racemic) | 2.32 | 2.16 | – | –
Cc1nc2cccc(-c3cc4c([nH]3)CCNC4=O)c2nc1NC(C)(C)CCS(C)(=O)=O | 232 | 98.6 | – | –
Cn1c(NC(C)(C)C)nc2c(-c3cc4c([nH]3)CNC4=O)cccc2c1=O | – | 0.193 | – | –
Nc1nc2cccc(-c3cc4c([nH]3)CCNC4=O)c2nc1Oc1ccccc1 | 2 | 1.8 | – | –
CC(C)(C)Nc1ccc2cccc(-c3cc4c([nH]3)CCNC4=O)c2n1 | 0.434 | 1.11 | – | –
Cc1nc2cccc(-c3cc4c([nH]3)CCNC4=O)c2nc1-c1c(F)cccc1Cl | 6.04 | – | – | –
Cc1nc2cccc(-c3cc4c([nH]3)CCNC4=O)c2nc1-c1cccnc1Cl | 98.5 | 187 | – | –
Cc1nc2cccc(-c3cc4c([nH]3)CCNC4=O)c2nc1N[C@H]1C[C@@H](NCC(F)F)C1 | 2 | 2 | – | –
